Assays:
male C57/BL6 mice [1] = assay: Paw placement test after photothrombotic stroke in the mouse; format: in vivo; settings: for paw function: continued for 5 days, FIG. 3C
Description: (§1) Animals. All experiments were carried out with the approval of the Malmo-Lund animal review board and according to the ARRIVE guidelines. The experiments were carried out on male C57/BL6 mice (8 weeks of age, Charles River Scanbur A/S Karlslunde, Denmark). Studies were subjected to randomization and carried out in a blinded fashion to the investigators who performed the surgeries and behavioral assessment.
Materials were as in Example 1 and the administration of the drug was made as in Example 1. Also the positive allosteric modulator (PAM) for the mGlur5 receptor was SIN006 (N-Cyclobutyl-6-[2-(3-fluorophenyl)ethynyl]-3-pyridinecarboxamide hydrochloride; VU0360172).
Induction of stroke in the mouse. Mice were subjected to unilateral photothrombotic (PT) cortical infarct in the left sensori-motor cortex. During surgery, the body temperature of the animals was kept at 37° C. using a self-regulating heating pad. Animals were anesthetized using 1.5-2.5% isoflurane (Sigma) in 100% 02. The skin above the skull was incised; a fiber optic bundle with a 2.5 mm aperture diameter was connected to a cold light source (CL 1500 ECO, Zeiss, Germany) and adjusted to the stereotaxic coordinates of the sensori-motor cortex, 0.5 mm anterior to bregma and 1.5 mm lateral to midline. One intraperitoneal (i.p.) injection of 0.25 ml Rose Bengal (10 mg/ml in 0.9% saline; Sigma-Aldrich, Germany) was given 5 min before the light was turned on for 20 minutes. Care was taken not to exceed 38° C. at the skull surface, underneath the fiber optic bundle. Post surgery, animals were allowed to awake from anesthesia while on a heating pad and returned to the cages with free access to food pellets and water.
Enriched housing. It is well known that housing of rodents in an enriched environment stimulates the various sensori-motor systems of the brain enhancing recovery after experimental stroke. Enriched housing was accomplished by the following procedure. After selective sorting at day 2 after stroke, mice were randomly distributed into standard (STD, 17 cm×16 cm×34.5 cm) or enriched cages (EE, 30 cm×27 cm×43 cm). Multilevel-enriched cages were equipped with various colored objects such as plastic tunnels, small houses, slides and rodent running wheels; the disposition of the objects was changed every second day. Mice were housed in either standard (2 animals/cage) or enriched cages (6-8 animals/cage) for 12 days. Animals in standard cages were handled similarly except for the housing condition.
Paw placement test. The mouse was held along its rostro-caudal extension on the edge of a bench and both the unilateral front and hind paws were gently pushed along it. The placement of each paw was recorded when the mouse was moved towards the edge. Sensori-motor dysfunction was assessed by using a score of 1, 0.5, and 0: (1)—the paw is immediately placed on the table surface; (0.5)—the limb is extended, but with some movements and attempts to place the paw on the surface of the table; (0)—the paw is totally immobilized, hanging down, with no movement. In order to obtain groups with a similar functional deficit prior to treatment of the animals with drugs or vehicle, selective sorting was performed on day 2 after experimental stroke, a time point of recovery when the infarct development had subsided.
(§2) Administration of the compounds. The compounds were administrated orally (p.o.) by catheters placed in the stomach. The amount of solutions were 0.2 ml/rat and 0.1 ml/mice.
(§3) Induction of stroke was as made as in Example 1 for rats and as in Example 2 in mice. Assessment of neurological function was performed as in Example 1 for rats and as in Example 2 for mice. The animals were perfused and immunostained as in Example 1, and the infarct size was assessed as in Example 1.

male Sprague Dawley rats = assay: Paw placement test after photothrombotic stroke in the rat; format: in vivo
Description: as §1, with “Malmö-Lund” for “Malmo-Lund”, “guidelines. Animals were housed under reverse light conditions, with the testing performed during the dark period when the rats are active.” for “guidelines.”, “Sprague Dawley rats (11” for “C57/BL6 mice (8”, “River,” for “River”, “The studies” for “Studies”
Administration of compound. The compound was injected as a bolus dose of 1 ml/kg into the lower quadrant of the abdomen.
(§4) Experimental stroke. The animals were anesthetized by isoflurane (approximately 2% in 02 under spontaneous ventilation) and placed into stereotaxic frame. Temperature was monitored during surgery using a rectal temperature probe and animals were kept at 37.0-37.5±0.2° C. by means of a heating pad with feedback control. A sagittal skin incision was made and subcutaneous connective tissue was removed and the skull was dried. Thereafter, the photosensitizer dye Rose Bengal (0.5 mL at 10 mg/mL) was infused in the tail vein. Two minutes after injection, the skull was illuminated with cold light (Schott, KL 1500 LCD) on an area of 8 to 4.5 mm for 15 min (from +4 to −4 mm antero-posterior and from 0.5 to 5 mm on the left from bregma). Thereafter the tail and the scalp incisions were sutured and the rats transferred to their home cage. The functional deficit was assessed 2 h after the onset of the stroke using the limb placement test and only the animals having a score 0, for both fore- and hindlimb contralateral to the brain damaged hemisphere were used for the study.
Test of neurological function. The paw placement test. The cortical damage inflicted by the phothrombosis, causes a deficit due to neuronal loss in the sensori-motor area and depression of functions in neuronal networks in the vicinity of the lesion. […] This test provides information on the tactile/proprioceptive response to limb stimulation. Animals were placed with all 4 paws on the table top, and the paws to be tested along the edge. The rat was moved over the edge so the paws to be tested loose contact with the table surface. The ability of the animals to place the limb back onto the table surface when the rat was moved towards the edge was evaluated. Importantly, the head was held at 45° angle, so that visual and whisker/snout stimulation was prevented. A prompt placement of the limb onto the table was scored as 1. Incomplete placing of the limb was scored as 0.5, and complete extension of the limb and paw was scored as 0. In order to obtain groups with a similar functional deficit prior to treatment of the animals with drugs or vehicle, selective sorting was performed on day 2 after experimental stroke, a time point of recovery when the infarct development had subsided.
as §2, §3
Induction of stroke, assessment of neurological function, perfusion of animals, immunostaining and assessment of infarct size were made as in Example 1.

mGluR5 KO rats = assay: Paw placement test after stroke in mGluR5 KO rats; format: in vivo, rat; settings: SIN013 treatment, FIG. 3D
Description: as §4, with “Two minutes after injection, the skull was illuminated with cold light (Schott, KL 1500 LCD) on an area of 8 to 4.5 mm for 15 min (from +4 to −4 mm antero-posterior and from 0.5 to 5 mm on the left from bregma). Thereafter the tail and the scalp incisions were sutured and the rats transferred to their home cage.” left out
Test of neurological function. […] The ability of the animals to place the limb back onto the table surface when the rat was moved towards the edge was evaluated. […] A prompt placement of the limb onto the table was scored as 1. Incomplete placing of the limb was scored as 0.5, and complete extension of the limb and paw was scored as 0. […]
Induction of stroke was as made as in Example 1 for rats and as in Example 2 in mice. […] The animals were perfused and immunostained as in Example 1, and the infarct size was assessed as in Example 1.

male C57/BL6 mice [2] = assay: Paw placement test after photothrombotic stroke in the mouse; format: in vivo

In the case of `COC(=O)N1CC[C@@H]2[C@H]1CCC[C@@]2(O)C#Cc1cccc(C)c1` [SIN 011, (3aR,4S,7aR)-Octahydro-4-hydroxy-4 [2-(3-methylphenyl)ethynyl]-1H-indole-1-carboxylic acid methyl ester], the paw placement function (male C57/BL6 mice [1]; mouse, 30 mg/kg p.o. daily for 5 days, started 2 days after stroke, vs vehicle, p<0.01, FIG. 3B) is reported as “significant recovery of paw function”.
For `N#Cc1cc(F)cc(-c2nc(-c3ccc(F)cn3)no2)c1` [SIN 015, 3-fluoro-5-(3-(5-fluoropyridin-2-yl)-1,2,4-oxadiazol5-yl)benzonitrile], the recovery of function (male Sprague Dawley rats; rat, 3 mg/kg for 5 days starting 2 days after stroke, FIG. 4C) was “improved recovery of function”.
In the case of `Cc1nc(C#Cc2ccnc(Cl)c2)c(C)n1-c1ccc(OC(F)(F)F)cc1` [SIN013, 2-chloro-4-[2-[2,5-dimethyl-1-[4-(trifluoromethoxy)phenyl]imidazol-4-yl]ethynyl]pyridine], the paw placement function (male Sprague Dawley rats; wild type rat, 2 mg/kg/day p.o. for 5 days, initiated 2 days after stroke, vs vehicle, FIG. 3D) is reported as “significantly improved paw placement function”, the paw function (male C57/BL6 mice [1]; mouse, 2 mg/kg daily, started 2 days after stroke, p<0.05) is reported as “enhancement of function, which was significant” and the paw function (male C57/BL6 mice [1]; mouse, 2 mg/kg every 48 h, started 2 days after stroke) is reported as “enhancement of function”. The “recovery of paw placement function” value (mGluR5 KO rats) was “recovery stimulated by SIN013 treatment was not seen”.
For `Fc1ccc2nc(CCC#Cc3ccccn3)cn2c1` [SIN008, 6-Fluoro-2-[4-(pyridin-2-yl)-3-butynyl]imidazo[1,2-a]pyridine], the “neurological function (paw placement)” value (male Sprague Dawley rats; rat, 30 mg/kg p.o. for 5 days, started 2 days after stroke, vs vehicle, FIG. 3A) was “significantly improved neurological function”.
With `Cc1nc(C#Cc2ccnc(Cl)c2)c(C)n1-c1ccc(F)cc1` [SIN014] the functional recovery (male C57/BL6 mice [1]; mouse, 10 mg/kg p.o. for 5 days (higher dose; lower dose 5 mg/kg p.o.), FIG. 3E) was “improved functional recovery at the higher dose”.
With `Cl.O=C(NC1CCC1)c1ccc(C#Cc2cccc(F)c2)nc1` [SIN006, N-Cyclobutyl-6-[2-(3-fluorophenyl)ethynyl]-3-pyridinecarboxamide hydrochloride] the “effect on enhanced recovery of function by enriched environment” value (male C57/BL6 mice [2]; SIN006 30 mg/kg p.o. concomitant with 5 days enriched housing after stroke, FIG. 2E) was “completely blocked” and the “paw placement score after 5 days of treatment” value (male C57/BL6 mice [2]; SIN006 30 mg/kg p.o. daily, 1 hour prior to SIN007 5 mg/kg i.p., starting two days after stroke, FIG. 2D) was “did not recover function”.
With `CN1CC(=O)N=C1NC(=O)Nc1cccc(Cl)c1` [SIN010, 1-(3-chlorophenyl)-3-(3-methyl-5-oxo-4H-imidazol-2-yl)urea] the recovery of function (male Sprague Dawley rats; rat, 10 mg/kg p.o. daily for 5 days or 12 days, initiated 2 days after stroke, FIG. 4A) was “improves recovery function”, the “improvement of function, time dependence” value (male Sprague Dawley rats; rat, 10 mg/kg p.o. daily for 12 days, initiated 2 days after stroke, vs vehicle, FIG. 4A) was “significant after 12 days of treatment” and the “recovery of function, combined with enriched housing” value (male C57/BL6 mice [1]; mice, daily SIN010 plus enriched housing from 2 days after stroke, vs Vh, EE alone or SIN010 alone, FIG. 4B) was “further improves recovery”.

Reference: patent US11033545B2, “Negative allosteric modulators of MGLUR5 for use in the treatment of mature brain damages” (Sinntaxis AB, priority 2016, dated 2021)
